# In US12581252B2, “Substituted pyrrolo[3,4-b]pyridines as PI3K-α inhibitors” (Relay Therapeutics, Inc., priority 2020, dated 2026):
# pIC50: −log10 of the molar value.
# Biological target: H1047R PIK3CA enzyme (Homo sapiens, UniProt P42336, H1047R)
# Assay: ADP-Glo Biochemical PIK3CA Kinase Assay
# Sequence of H1047R PIK3CA enzyme (P42336 whole entry H1047R): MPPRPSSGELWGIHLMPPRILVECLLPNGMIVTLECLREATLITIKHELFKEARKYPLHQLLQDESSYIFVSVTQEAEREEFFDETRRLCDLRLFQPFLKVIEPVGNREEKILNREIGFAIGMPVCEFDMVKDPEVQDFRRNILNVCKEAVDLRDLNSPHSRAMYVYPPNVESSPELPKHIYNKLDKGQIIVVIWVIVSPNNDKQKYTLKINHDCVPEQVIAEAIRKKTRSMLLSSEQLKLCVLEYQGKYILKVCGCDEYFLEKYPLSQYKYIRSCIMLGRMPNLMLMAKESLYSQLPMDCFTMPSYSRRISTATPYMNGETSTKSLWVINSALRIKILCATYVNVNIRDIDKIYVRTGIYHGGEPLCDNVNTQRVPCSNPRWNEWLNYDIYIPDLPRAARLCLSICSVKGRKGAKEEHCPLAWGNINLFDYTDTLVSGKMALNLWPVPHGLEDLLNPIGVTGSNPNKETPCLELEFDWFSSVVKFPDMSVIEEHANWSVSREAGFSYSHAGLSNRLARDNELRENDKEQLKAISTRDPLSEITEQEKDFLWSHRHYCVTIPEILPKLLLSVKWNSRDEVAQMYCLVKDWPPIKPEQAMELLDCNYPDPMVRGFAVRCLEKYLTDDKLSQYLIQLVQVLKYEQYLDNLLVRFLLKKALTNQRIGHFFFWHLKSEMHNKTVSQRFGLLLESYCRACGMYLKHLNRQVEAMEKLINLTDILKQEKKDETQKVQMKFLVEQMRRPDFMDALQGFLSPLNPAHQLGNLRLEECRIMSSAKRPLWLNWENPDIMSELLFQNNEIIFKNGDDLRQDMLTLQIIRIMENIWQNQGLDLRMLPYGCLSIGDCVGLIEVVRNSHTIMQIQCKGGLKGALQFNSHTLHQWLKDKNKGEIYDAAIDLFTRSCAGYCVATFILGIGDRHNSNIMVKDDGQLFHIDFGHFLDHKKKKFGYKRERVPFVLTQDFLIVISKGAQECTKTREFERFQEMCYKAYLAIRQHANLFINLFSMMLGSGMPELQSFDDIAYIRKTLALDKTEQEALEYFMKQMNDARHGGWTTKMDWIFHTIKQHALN
# Sequence of H1047R PIK3CA enzyme (P27986 whole entry partner): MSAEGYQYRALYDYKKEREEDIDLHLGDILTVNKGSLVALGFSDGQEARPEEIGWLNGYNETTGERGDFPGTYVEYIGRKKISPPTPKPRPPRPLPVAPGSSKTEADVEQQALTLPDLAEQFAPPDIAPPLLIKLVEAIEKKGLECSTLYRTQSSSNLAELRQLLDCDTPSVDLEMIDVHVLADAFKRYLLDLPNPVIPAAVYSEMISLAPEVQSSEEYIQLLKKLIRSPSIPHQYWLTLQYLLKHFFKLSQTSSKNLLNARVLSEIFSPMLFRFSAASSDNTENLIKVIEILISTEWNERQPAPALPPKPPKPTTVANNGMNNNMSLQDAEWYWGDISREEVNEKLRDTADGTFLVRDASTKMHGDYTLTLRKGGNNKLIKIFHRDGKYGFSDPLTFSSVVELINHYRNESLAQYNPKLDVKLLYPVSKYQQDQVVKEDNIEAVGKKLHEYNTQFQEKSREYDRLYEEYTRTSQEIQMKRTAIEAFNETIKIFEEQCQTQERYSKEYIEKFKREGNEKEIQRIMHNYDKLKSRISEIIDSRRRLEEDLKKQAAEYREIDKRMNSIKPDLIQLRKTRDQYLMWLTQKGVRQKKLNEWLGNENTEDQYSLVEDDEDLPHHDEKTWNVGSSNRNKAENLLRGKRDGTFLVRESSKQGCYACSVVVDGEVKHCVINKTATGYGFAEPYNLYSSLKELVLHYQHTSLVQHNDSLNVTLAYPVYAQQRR
row,pIC50,Structure (SMILES)
1,5.00 to 6.00,O=C1NC(c2cc(F)ccc2Cl)c2c(NC(=O)N3CCc4c3cccc4C(F)(F)F)cccc21 (centres unmarked) [Compound I-2498]
2,5.00 to 6.00,"O=C1N[C@@H](c2cc(F)ccc2Cl)c2c(NC(=O)[C@H]3C[C@H](O)C[C@@H](C(F)(F)F)C3)cc(Br)cc21 (single isomer, unassigned) [Compound I-2151]"
3,4.00 to 5.00,O=C1NC(c2cc(F)ccc2Cl)c2c(OCc3ccccc3)cc(-c3ccc4ncnn4c3)cc21 (centres unmarked) [Compound I-1955]
4,5.00 to 6.00,O=C(Nc1cc(Br)cc2c1C(c1cc(F)ccc1Cl)NC2=O)c1cccc(C2CC2)c1 (centres unmarked) [Compound I-569]
5,6.30 to 7.00,"O=C1N[C@H](c2cc(F)ccc2Cl)c2c(NC(=O)N3C[C@H](O)c4ccccc43)cc(Br)cc21 (single isomer, unassigned) [Compound I-1513]"
6,5.00 to 6.00,COC(=O)c1cc(Nc2cccc3c2C(c2cc(F)ccc2Cl)NC3=O)ncc1C(F)(F)F (centres unmarked) [Compound I-1238]
7,4.00 to 5.00,Cn1ncc2c(C(=O)Nc3cccc4c3C(c3cc(F)ccc3Cl)NC4=O)cc(F)cc21 (centres unmarked) [Compound I-871]
8,4.00 to 5.00,O=C1NC(c2cc(F)ccc2Cl)c2c(Br)cc(-c3ccc4ncnn4c3)cc21 (centres unmarked) [Compound I-1672]
9,5.00 to 6.00,N#Cc1cccc(C(=O)Nc2cc(Br)cc3c2C(c2cc(F)ccc2Cl)NC3=O)c1 (centres unmarked) [Compound I-522]
10,≥ 7.00,"N#C[C@H]1C[C@H](c2cc(NC(=O)c3cc(F)cc(C(F)(F)F)c3)c3c(c2)C(=O)N[C@H]3c2cc(F)ccc2Cl)C1 (single isomer, unassigned) [Compound I-1326]"
11,6.30 to 7.00,O=C(Nc1cccc2c1C(c1cc(Br)ccc1Cl)NC2=O)c1cc(O)cc(C(F)(F)F)c1 (centres unmarked) [Compound I-414]
12,4.00 to 5.00,"O=C1N[C@@H](c2cc(F)ccc2Cl)c2c(NC(=O)[C@H]3CC[C@@H](O)C3)cc(Br)cc21 (single isomer, unassigned) [Compound I-2102]"
13,4.00 to 5.00,O=C1N[C@@H](c2cc(F)ccc2Cl)c2c(N[C@H]3COCc4ccccc43)cc(Br)cc21 (racemic) [Compound I-1893]
14,4.00 to 5.00,O=C1NC(c2cc(F)ccc2Cl)c2c(NCc3ccccc3)cc(Br)cc21 (centres unmarked) [Compound I-1658]

# The remaining lines, values behind:
row,Structure (SMILES),pIC50
1,N#Cc1cc(Oc2cc(NC(=O)c3cc(F)cc(C(F)(F)F)c3)c3c(c2)C(=O)NC3c2cc(F)ccc2Cl)ccn1 (centres unmarked) [Compound I-1130],≥ 7.00
2,N#Cc1cc2ncnn2cc1-c1cc(NC(=O)c2cc(F)cc(C(F)(F)F)c2)c2c(c1)C(=O)N[C@@H]2c1cc(F)ccc1Cl [Compound I-1645],5.00 to 6.00
3,O=C(Nc1cnc(-c2cn[nH]c2)c2c1C(c1cc(F)ccc1Cl)NC2=O)c1cc(F)cc(C(F)(F)F)c1 (centres unmarked) [Compound I-287],6.30 to 7.00
4,N#Cc1cncn1Cc1cc(NC(=O)c2cc(F)cc(C(F)(F)F)c2)c2c(c1)C(=O)N[C@H]2c1cc(F)ccc1Cl (stereo in doubt) [Compound I-1748],≥ 7.00
5,CN1CC(c2cc(NC(=O)c3cc(F)cc(C(F)(F)F)c3)c3c(c2)C(=O)NC3c2cc(F)ccc2Cl)CC1=O (racemic) [Compound I-1687],≥ 7.00
6,O=C(Nc1cc(-c2ccc3ncnn3c2)c(-c2ccc3ncnn3c2)c2c1C(c1cc(F)ccc1Cl)NC2=O)c1cc(F)cc(C(F)(F)F)c1 (centres unmarked) [Compound I-1802],6.30 to 7.00
7,"CC(C)(C#N)n1cc(-c2cc(NC(=O)N3C[C@](O)(C(F)(F)F)c4cc(F)ccc43)c3c(c2)C(=O)N[C@@H]3c2cc(F)ccc2Cl)cn1 (single isomer, unassigned) [Compound I-2610]",5.00 to 6.00
8,"C[C@H](C#N)n1cc(-c2cc(NC(=O)c3cc(F)cc(C(F)(F)F)c3)c3c(c2)C(=O)N[C@H]3c2cc(F)ccc2Cl)cn1 (single isomer, unassigned) [Compound I-1916]",≥ 7.00
9,CNS(=O)(=O)Cc1cc(NC(=O)c2cc(F)cc(C(F)(F)F)c2)c2c(c1)C(=O)N[C@H]2c1cc(F)ccc1Cl [Compound I-1534],≥ 7.00
10,O=C1N[C@@H](c2cc(F)ccc2C(F)F)c2c(NC(=O)c3nsc4ccccc34)cccc21 [Compound I-168],≥ 7.00
11,"CNc1cc(NC(=O)N2C[C@@](O)(C(F)(F)F)c3cc(F)ccc32)c2c(c1C#N)C(=O)N[C@@H]2c1cc(F)ccc1Cl (single isomer, unassigned) [Compound I-2607]",5.00 to 6.00
12,"Cc1ccccc1C1NC(=O)c2cc(CO)cc(NC(=O)c3nsc4ccccc34)c21 (centres unmarked) [Compound I-131, N-[6-(Hydroxymethyl)-3-(2-methylphenyl)-1-oxo-2,3-dihydro-1H-isoindol-4-yl]-1,2-benzothiazole-3-carboxamide]",≥ 7.00
13,"O=C(Nc1cc(OC[C@@H]2CCO2)cc2c1[C@H](c1cc(F)ccc1Cl)NC2=O)c1cc(F)cc(C(F)(F)F)c1 (single isomer, unassigned) [Compound I-1517]",≥ 7.00
14,O=C(Nc1cc(-c2cn3ccnc3cn2)cc2c1[C@H](c1cc(F)ccc1Cl)NC2=O)c1cc(F)cc(C(F)(F)F)c1 [Compound I-1330],≥ 7.00
15,"O=C1NC(c2cc(F)ccc2Cl)c2c(NC(=O)N3C[C@H](O)[C@@H](C(F)(F)F)C3)cc(-c3ccc4ncnn4c3)cc21 (single isomer, unassigned) [Compound I-1902]",5.00 to 6.00
16,O=C1NC(c2c(F)cccc2F)c2c(NC(=O)c3nsc4ccccc34)cccc21 (centres unmarked) [Compound I-84],5.00 to 6.00
17,O=C(Nc1cc(-c2ccc3nccn3c2)cc2c1C(c1cc(F)ccc1Cl)NC2=O)c1cc(F)cc(C(F)(F)F)c1 (centres unmarked) [Compound I-736],≥ 7.00
18,O=C(Nc1cc(Br)cc2c1C(c1cc(F)cc(F)c1Cl)NC2=O)c1cc(F)cc(C(F)(F)F)c1 (centres unmarked) [Compound I-807],≥ 7.00
19,O=C1NC(c2cc(F)ccc2Cl)c2c1cc(-c1cnn(C(F)F)c1)cc2-c1cn2ccc(C(F)(F)F)cc2n1 (centres unmarked) [Compound I-2135],5.00 to 6.00
20,Cc1ccccc1C1NC(=O)c2cccc(NC(=O)c3c[nH]c(=O)c(F)c3)c21 (centres unmarked) [Compound I-86],4.00 to 5.00
21,Cc1ccccc1C1NC(=O)c2nccc(NC(=O)N3CC(C)c4ccccc43)c21 (centres unmarked) [Compound I-249],6.30 to 7.00
22,O=C(Nc1cccc2c1[C@H](CC1CCCCC1)NC2=O)c1cc(F)cc(C(F)(F)F)c1 [Compound I-2058],6.00 to 6.30
23,O=C(Nc1cc(OC2CCC2(F)F)cc2c1C(c1cc(F)ccc1Cl)NC2=O)c1cc(F)cc(C(F)(F)F)c1 (centres unmarked) [Compound I-1198],≥ 7.00
24,CNS(=O)(=O)Cc1cc(NC(=O)c2cc(F)cc(C(F)(F)F)c2)c2c(c1)C(=O)N[C@@H]2c1cc(F)ccc1Cl [Compound I-1533],6.30 to 7.00
25,Cc1ccccc1C1NC(=O)c2cccc(-c3nnc(-c4ccccc4)[nH]3)c21 (centres unmarked) [Compound I-398],4.00 to 5.00
26,NCc1cc(NC(=O)c2cc(F)cc(C(F)(F)F)c2)c2c(c1)C(=O)NC2c1cc(F)ccc1Cl (centres unmarked) [Compound I-126],≥ 7.00
27,O=C(Nc1cc(C(O)(O)C(F)(F)F)cc2c1C(c1cc(F)ccc1Cl)NC2=O)c1cc(F)cc(C(F)(F)F)c1 (centres unmarked) [Compound I-484],6.30 to 7.00
28,"O=C1N[C@@H](c2cc(F)ccc2Cl)c2c(NC(=O)N3C[C@@](O)(C(F)(F)F)c4cc(F)ccc43)cc(N3CCOC3=O)cc21 (single isomer, unassigned) [Compound I-2675]",5.00 to 6.00
29,O=C(Nc1cccc2c1C(C1CCCCC13CC3)NC2=O)c1cc(F)cc(C(F)(F)F)c1 (racemic) [Compound I-1912],5.00 to 6.00
30,N#Cc1cnn2ccc(-c3cc(NC(=O)c4cc(F)cc(C(F)(F)F)c4)c4c(c3)C(=O)NC4c3cc(F)ccc3Cl)cc12 (centres unmarked) [Compound I-1762],≥ 7.00
